# Publication PMC2725291, “Genetic and Molecular Basis of Individual Differences in Human Umami Taste Perception” (PLoS ONE, 2009)
# Target: T1, TAS1R1-12H-372A/TAS1R3 -757R (Homo sapiens, UniProt Q7RTX0+Q7RTX1, C757R/Q12H)
# T1 construct: expressed in transfected cells; host or cells: HEK293
# T1 sequence (Q7RTX1 21-841): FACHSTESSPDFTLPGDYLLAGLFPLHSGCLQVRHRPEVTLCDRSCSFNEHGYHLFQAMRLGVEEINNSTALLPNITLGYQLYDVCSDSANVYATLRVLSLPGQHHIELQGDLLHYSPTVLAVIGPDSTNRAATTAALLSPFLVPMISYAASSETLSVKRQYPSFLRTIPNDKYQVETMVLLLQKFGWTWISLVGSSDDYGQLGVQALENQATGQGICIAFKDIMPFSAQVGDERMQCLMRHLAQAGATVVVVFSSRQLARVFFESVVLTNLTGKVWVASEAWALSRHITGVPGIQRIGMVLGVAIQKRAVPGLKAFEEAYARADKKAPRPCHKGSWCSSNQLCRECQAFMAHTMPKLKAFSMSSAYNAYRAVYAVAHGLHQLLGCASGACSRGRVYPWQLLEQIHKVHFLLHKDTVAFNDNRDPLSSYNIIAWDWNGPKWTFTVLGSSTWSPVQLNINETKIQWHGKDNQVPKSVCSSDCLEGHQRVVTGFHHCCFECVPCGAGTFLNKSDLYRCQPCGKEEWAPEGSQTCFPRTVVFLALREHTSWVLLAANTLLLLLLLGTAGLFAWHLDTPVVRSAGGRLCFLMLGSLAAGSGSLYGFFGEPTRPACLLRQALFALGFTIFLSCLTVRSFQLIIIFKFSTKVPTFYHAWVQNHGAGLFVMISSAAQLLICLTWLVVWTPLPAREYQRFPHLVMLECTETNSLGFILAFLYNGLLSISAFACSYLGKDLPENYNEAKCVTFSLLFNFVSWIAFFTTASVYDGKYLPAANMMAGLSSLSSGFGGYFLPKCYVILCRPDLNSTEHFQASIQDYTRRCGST
# T1 sequence (Q7RTX0 21-852 C757R): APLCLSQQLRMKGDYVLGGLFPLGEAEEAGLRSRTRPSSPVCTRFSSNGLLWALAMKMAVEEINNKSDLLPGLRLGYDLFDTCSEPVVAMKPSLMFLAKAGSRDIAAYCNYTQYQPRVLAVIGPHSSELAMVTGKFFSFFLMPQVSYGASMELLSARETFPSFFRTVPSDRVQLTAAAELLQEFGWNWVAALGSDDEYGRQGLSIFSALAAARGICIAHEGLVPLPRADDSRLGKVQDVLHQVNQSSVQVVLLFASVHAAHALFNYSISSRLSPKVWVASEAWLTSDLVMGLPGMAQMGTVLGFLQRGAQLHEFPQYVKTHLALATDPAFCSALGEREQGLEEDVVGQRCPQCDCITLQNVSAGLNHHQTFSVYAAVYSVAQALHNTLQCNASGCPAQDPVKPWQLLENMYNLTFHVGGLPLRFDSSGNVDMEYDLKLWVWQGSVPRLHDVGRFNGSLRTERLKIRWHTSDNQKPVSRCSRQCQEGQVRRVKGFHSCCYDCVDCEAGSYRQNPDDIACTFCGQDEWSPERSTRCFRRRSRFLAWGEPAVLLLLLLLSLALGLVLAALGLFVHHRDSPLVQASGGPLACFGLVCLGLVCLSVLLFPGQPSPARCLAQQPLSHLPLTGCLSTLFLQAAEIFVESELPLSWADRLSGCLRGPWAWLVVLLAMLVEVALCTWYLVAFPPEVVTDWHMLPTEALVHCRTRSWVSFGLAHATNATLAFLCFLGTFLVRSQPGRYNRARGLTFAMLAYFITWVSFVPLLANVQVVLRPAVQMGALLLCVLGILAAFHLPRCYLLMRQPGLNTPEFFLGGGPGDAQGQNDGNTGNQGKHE
# Assay: Ca2+ imaging in HEK293 cells, Q12H amino acid substitution of TAS1R1
# Format: cell-based
# Conditions: vs. TAS1R1-12Q-372A/TAS1R3-757R; Figure S3
# From the text: Intronless human TAS1Rs and Gαl6 expression constructs were generated in the pEF-DEST51 Gateway vector (Invitrogen) by genomic DNA-based methods. To subclone each gene into the vector, a Kozak cassette was introduced at the 5′ end before the start codon. Gαl6 chimeras were generated by PCR with mutagenic primers. The carboxyl-terminal tail of Gαl6, five-residue (EINLL) was replaced by its counterpart from Gαi3 (ECGLY; Gα16-i3), Gαgust (DCGLF; Gα16-gust), and Gα16-gust44 was generated as described. The integrity of all DNA constructs was confirmed by DNA sequencing. Point mutations in TAS1Rs were made using the same overlapping PCR strategy with mutagenic primers. […]
# HEK293 cells were cultured at 37°C under a humidified atmosphere containing 5% CO2 in Dulbecco's modified Eagle's medium supplemented with 10% fetal bovine serum. […] The transfection efficiencies were estimated by visualizing DsRed fluorescence (data not shown) or by immunocytochemistry of TAS1R3, and were typically 50∼55% (Figure S4). […]
# Another imaging system, FlexStation II (Molecular Devices) was used for TAS1R mutant analysis. […] Fluorescence changes (excitation at 485 nm, emission at 525 nm, and cutoff at 515 nm) were monitored at 2 sec intervals; 50 µl of HBSS supplemented with 2×tastants were added at 30 sec, and scanning was continued for an additional 120 sec. […]
smiles,measurement,value
"N[C@@H](CCC(=O)O)C(=O)[O-].[Na+] [MSG, monosodium glutamate]",effect of the Q12H amino acid mutation of TAS1R1 on responses,did not affect
